Experimental data as given in patent US9000135B2, “Self-reactive arms and prodrugs comprising same” (Centre Nationale de Recherche Scientifique, priority 2010, dated 2015).

Tests used:
Assay type in all cases: cell-based
[1] = test system: HeLa cells, expressing the folic acid receptor (FR); assay: Internalization monitored by confocal microscopy (doxorubicin fluorescence) in HeLa cells; conditions: 10 μM
Protocol: (§1) Compound (7) was tested on two cell lines, the HeLa cells, expressing the folic acid receptor (FR), and the A549 cells expressing little or none of these receptors.
(§2) The HeLa and A549 cells were cultured in RPMI 1640 medium supplemented with 10% fetal calf serum (InVitrogen) at 37° C. in an atmosphere containing 5% CO2.
(§3) For confocal microscopy experiments, the cells were cultured in a glass-bottomed bowl.
(§4) The cells were incubated for 1 hour in the presence or absence of 1 μm of folic acid before being treated with either a buffer solution (control), or doxorubicin at 10 μM, or with a doxorubicin-galactose (DOX-GAL) conjugate, compound (5), in a concentration of 10 μM, or compound (7) (DOX-GAL-AF) in a concentration of 10 μM, or compound (7) in the presence of folic acid with respective concentrations of 10 μM.
(§5) After treatment, the cells were rinsed with PBS and fixed with a PBS-3.7% formaldehyde solution for 20 minutes, at room temperature. […]
(§6) The internalization by endocytosis of doxorobucin of the compounds (5) and (7) and of compound (7) in the presence of folic acid (AF) was monitored by confocal microscopy using the fluorescence of doxorubicin in the Hela cells and in the A549 cells.

Hela cells = assay: Proliferation test (XTT) on Hela cells; conditions: 0 to 1000 nM, 4 days
Protocol: (§7) In order to check that the endocytosis of compound (7) DOX-GAL-AF is followed by release of the drug in the intracellular medium, proliferation tests were performed on Hela and A549 cells incubated in the presence of increasing concentrations (0 to 1000 nM) of doxorubicin (DOX), compound (5) (DOX-GAL) and compound (7) (DOX-GAL-AF) for 4 days.
(§8) The cell proliferation kit II (XTT; Roche) was used to evaluate the cellular proliferation. The kit was used following the manufacturer's recommendations.
(§9) In brief, 3×10^3 cells/well were placed on 96 culture plates and then in 100 μl of medium,
(§10) The cells were cultured as previously indicated.
(§11) The cells were cultured for 24 hours before addition of the compounds tested in the indicated concentration.
(§12) After 4 days of treatment, 50 μl of XTT marking mixture were added to the well. The cells were then incubated for 4 hours at 37° C. before the absorbance was determined at 480 nm.
(§13) In order to check that the enzymatic activation of compound (7) DOX-GAF-AF can effectively take place in the cellular environment, cytotoxicity tests were repeated in a culture medium previously supplemented with β-galactosidase (E. coli) (40 U·mL^−1) (curves in dotted lines).

[2] = test system: A549 cells expressing little or none of these receptors; assay: Internalization monitored by confocal microscopy (doxorubicin fluorescence) in A549 cells; conditions: 10 μM
Protocol: as §1, §2, §3, §4, §5, §6

A549 cells = assay: Proliferation test (XTT) on A549 cells; conditions: 0 to 1000 nM, 4 days
Protocol: as §7, §8, §9, §10, §11, §12, §13

## C#CCC(OC(=O)NC1CC(O[C@H]2C[C@](O)(C(=O)CO)Cc3c(O)c4c(c(O)c32)C(=O)c2c(OC)cccc2C4=O)OC(C)C1O)c1ccc(O[C@@H]2OC(CO)[C@H](O)C(O)C2O)c([N+](=O)[O-])c1 (some centres unmarked) [Compound 5]
[1]
  internalization by endocytosis (fluorescence of doxorubicin, confocal microscopy): not internalized in any of the cell lines
Hela cells
  inhibition of proliferation (in words): ineffective on the two cell lines
[2]
  internalization by endocytosis (fluorescence of doxorubicin, confocal microscopy): not internalized in any of the cell lines
A549 cells
  toxicity / inhibition of proliferation (in words): ineffective on the two cell lines

## COc1cccc2c1C(=O)c1c(O)c3c(c(O)c1C2=O)C[C@@](O)(C(=O)CO)C[C@@H]3O[C@H]1C[C@H](N)[C@H](O)[C@H](C)O1 [doxorubicin]
[1]
  internalization by endocytosis (fluorescence of doxorubicin, confocal microscopy): penetrates non-specifically through the membranes of the two cell lines
Hela cells
  inhibition of proliferation (in words): inhibits the proliferation of these two lines
[2]
  internalization by endocytosis (fluorescence of doxorubicin, confocal microscopy): penetrates non-specifically through the membranes of the two cell lines
A549 cells
  toxicity / inhibition of proliferation (in words): inhibits the proliferation of these two lines
